Measured values taken from paper PMC5607274, “An iterative compound screening contest method for identifying target protein inhibitors using the tyrosine-protein kinase Yes” (Scientific Reports, 2017).

Biological target: T1, human recombinant Yes [a.a. 2–543 (end)] (Homo sapiens, UniProt P07947)
T1 construct: human recombinant Yes [a.a; 2–543 (end)]; purchased BPS Bioscience 40488
Assay: ADP-Glo kinase assay, inhibition rates of Yes phosphorylation activity (first and second screening)
Format: biochemical
Details: 10 μmol L−1 compound; for First screening IR (inhibition rate): mean of n = 4 wells
Summary of the method: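 ADP-Glo luminescence measured inhibition of human recombinant Yes (a.a. 2–543) phosphorylation activity. In the first screen, each compound ran in 4 wells and inhibition rates were averaged. The second screen retested hits as compounds dissolved from fresh powder.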

T1 sequence (P07947 2-543): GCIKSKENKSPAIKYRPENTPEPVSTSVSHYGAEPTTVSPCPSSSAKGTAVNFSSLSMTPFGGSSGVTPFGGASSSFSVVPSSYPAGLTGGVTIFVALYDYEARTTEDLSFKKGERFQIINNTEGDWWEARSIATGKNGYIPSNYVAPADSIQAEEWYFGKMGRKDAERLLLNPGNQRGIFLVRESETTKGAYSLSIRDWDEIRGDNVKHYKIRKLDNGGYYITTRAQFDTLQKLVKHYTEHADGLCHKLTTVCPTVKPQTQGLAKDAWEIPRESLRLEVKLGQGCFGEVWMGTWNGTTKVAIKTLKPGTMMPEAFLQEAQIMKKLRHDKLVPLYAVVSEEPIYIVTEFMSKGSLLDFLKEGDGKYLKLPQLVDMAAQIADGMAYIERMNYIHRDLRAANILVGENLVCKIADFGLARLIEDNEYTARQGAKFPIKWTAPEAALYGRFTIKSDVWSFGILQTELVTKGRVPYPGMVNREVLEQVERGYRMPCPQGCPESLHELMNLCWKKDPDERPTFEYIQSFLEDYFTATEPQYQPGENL

Compound | First screening IR (inhibition rate) [%] | Second screening IR (inhibition rate) (second screening, dissolved from fresh powder, n = 4) [%]
CCN(CC)C(CNC(=O)C1CCN(c2ccc3nnc(C(F)(F)F)n3n2)CC1)c1ccccc1 (centres unmarked) [Compound Z237862822] | 0 | –
CC(C)n1ncc2c(C(=O)Nc3ccc(F)cc3Cl)cc(-c3ccco3)nc21 [Compound Z216417110] | 21 | –
O=S(=O)(Nc1ccc(N2CCOCC2)cc1)c1ccc(Cl)c(C(F)(F)F)c1 [Compound Z45660528] | -2 | –
Cc1c(C#N)c(NC(=O)CN2CCN(CC(=O)N3CCCCC3)CC2)n(-c2cccc(F)c2)c1C [Compound Z195846234] | 0 | –
COc1ccc(Cl)cc1CN(C)C(=O)c1cc(C(C)C)nc2c1cnn2C(C)C [Compound Z110143980] | -14 | –
CN(CC(=O)NCc1ccco1)C(=O)/C=C/c1ccc(-n2ccnc2)cc1 [Compound Z62804747] | 2 | –
CCCCOc1ccc(C(=O)NCC(=O)NCC(c2cccs2)N2CCOCC2)cc1 (centres unmarked) [Compound Z84671779] | 6 | –
N#Cc1ccsc1NC(=O)CCCSc1nc2ccccc2[nH]1 [Compound Z29082077] | 16 | –
C=CCN(CC(=O)Nc1cccc(C#N)c1)S(=O)(=O)c1ccccc1F [Compound Z26091205] | 3 | –
CCOc1ccc(-n2c(O)c(C=NCCCN3CCOCC3)c3ccccc3c2=O)cc1 [Compound Z31276645] | -6 | –
CC1C/C(=C/c2ccc(Cl)c([N+](=O)[O-])c2)c2nc3ccccc3c(C(=O)O)c2C1 (centres unmarked) [Compound Z46107857] | 11 | –
CC(O)CNc1nc2ccccc2n1CC(=O)NCc1cccs1 (centres unmarked) [Compound Z25766910] | -11 | –
COc1ccc(CCNC(=O)Cn2c(CN3CCOCC3)nc3sc4c(c3c2=O)CCC(C)C4)cc1 (centres unmarked) [Compound Z56952971] | -10 | –
CC(c1ccccc1)n1c(NC(=O)c2ccccc2)c(S(=O)(=O)c2ccccc2)c2nc3ccccc3nc21 (centres unmarked) [Compound Z56877281] | -3 | –
COc1cccc(/C=C2\CCCc3c2nc2ccccc2c3C(=O)O)c1 [Compound Z46035772] | 11 | –
COc1ccc(C(CNC(=O)c2ccc3c(c2)NC(=O)C(C)S3)N(C)C)cc1 (centres unmarked) [Compound Z26596638] | 27 | –
CN(c1ccc(OC(=O)C23CC4CC(CC(Cl)(C4)C2)C3)cc1)S(=O)(=O)c1ccccc1F [Compound Z29631119] | 5 | –
CCCCN(S(C)(=O)=O)S(=O)(=O)c1ccc(OC)cc1 [Compound Z85927834] | 1 | –
CCC(C)(C)C1C/C(=C/c2ccc(C(C)C)cc2)c2nc3ccccc3c(C(=O)O)c2C1 (centres unmarked) [Compound Z46116606] | 13 | –

Compound | First screening IR (inhibition rate) [%] | Second screening IR (inhibition rate) (second screening, dissolved from fresh powder, n = 4) [%]
O=C(Nc1cc(-c2cccc([N+](=O)[O-])c2)sc1C(=O)O)c1ccc2c(c1)CCC2 [Compound Z204342388] | -1 | –
CCc1cccc(OCC(=O)C(C#N)c2nc3ccccc3[nH]2)c1 (centres unmarked) [Compound Z56595958] | 2 | –
Cc1ccccc1Nc1nc(N)nc(CSc2nc3ccccc3c(=O)n2CCCN2CCOCC2)n1 [Compound Z19837406] | -7 | –
CCn1ncc2c(C(=O)N(C)Cc3ccccc3)cc(-c3ccccc3)nc21 [Compound Z223859126] | -16 | –
Cc1ccc2nc(CSc3n[nH]c(-c4ccccc4)n3)cn2c1 [Compound Z25398010] | -4 | –
COc1cccc(-c2nnc(SCC(=O)N3CCOCC3)n2-c2ccc(C)cc2)c1 [Compound Z19982748] | 27 | –
CC(C)n1ncc2c(C(=O)O)cc(-c3ccccc3F)nc21 [Compound Z56643534] | -8 | –
CC(=O)c1c[nH]c(C(=O)NCCc2ccc(-c3csc(C)n3)s2)c1 [Compound Z165050208] | 3 | –
CC(=O)CCc1ccc(OCc2cc(=O)n3cc(C)ccc3n2)cc1 [Compound Z25824142] | -24 | –
Cc1ccc(-n2c(=O)/c(=C/c3ccc4c(c3)OCO4)s/c2=C(/C#N)C(=O)NCCN2CCOCC2)c(C)c1 [Compound Z47840324] | -11 | –
COc1ccc(/C=N/Nc2ncnc3sc(C)c(C)c23)cc1O [Compound Z49890825] | 4 | –
Nc1nc(CSc2ncc(-c3ccc(F)cc3)o2)nc2ccccc12 [Compound Z226851604] | -34 | –
COc1ccc(-n2cc(-c3ccccc3)c3c(NCCCO)ncnc32)cc1 [Compound Z57455872] | 1 | –
Nc1c(S(=O)(=O)c2ccccc2)c2nc3ccccc3nc2n1CCNC(=O)c1ccc(Cl)cc1 [Compound Z56854331] | 9 | –
CC1=Nc2nc(N3CCCCC3)c(C#N)c3c4c(nc(c23)N1)N(c1ccc(C)cc1)C(=O)C4 [Compound Z55516559] | -13 | –
Cc1ccccc1Nc1nc(N)nc(CN(C)Cc2ccc(C(C)(C)C)cc2)n1 [Compound Z44561353] | 5 | –
Cl.Fc1c(-c2ccccc2)nc2ccccc2c1-c1ccccc1 [Compound Z223042658] | 30 | –
Clc1ccc(-c2csc(Nc3ccccc3)n2)s1 [Compound Z238765362] | 28 | –
CC1CCc2c(sc3nc4c(c(-c5ccco5)c23)-c2ccccc2CC4)C1.Cl (centres unmarked) [Compound Z76887050] | 8 | –

Results, then the compound that gave them:

First screening IR (inhibition rate) [%] | Second screening IR (inhibition rate) (second screening, dissolved from fresh powder, n = 4) [%] | Compound
16 | – | CCCN(C1CCS(=O)(=O)C1)S(=O)(=O)CCC (centres unmarked) [Compound Z830071152]
44 | – | Cc1ccccc1-n1c(=O)c2ccccc2n2c(=S)n(CN3CCN(CCC(C)C)CC3)nc12 [Compound Z431773138]
18 | – | Cn1ncc2c(N3CCOC(Cn4cccn4)C3)ncnc21 (centres unmarked) [Compound Z1139215576]
6 | – | Cc1n[nH]c(C)c1/C=C/C(=O)c1ccc(N2CCCC2=O)cc1 [Compound Z424802904]
9 | – | CCOC(=O)c1cc(-c2ccccc2)nc2[nH]c(=O)c3ccccc3c12 [Compound Z295883036]
-16 | – | Cc1noc2ncc(C(=O)NCc3cccc(Cn4ccnc4)c3)cc12 [Compound Z395825976]
-9 | – | Cc1nc2c(cc1C(=O)NCCNc1ccccc1[N+](=O)[O-])c(C)nn2C [Compound Z355820588]
17 | – | CCCn1nccc1NC(=O)CN(C)C(C)c1cccc(-c2ccncc2)c1 (centres unmarked) [Compound Z1587266149]
8 | – | Cc1cc(C)n(CCCNC(=O)c2cc3cc(F)ccc3[nH]2)n1 [Compound Z301214762]
10 | – | CN(Cc1ccc(C(=O)NCC(F)(F)F)cc1)c1cc(Cl)nc(N)n1 [Compound Z328693166]
2 | – | O=C(c1cc(C2CC2)[nH]n1)N1CCC(=Cc2cc(Cl)ccc2Cl)CC1 [Compound Z1432870591]
8 | – | Oc1cncc(/C=C/c2nc(-c3ccncc3)no2)c1 [Compound Z1739342675]
4 | – | CC(C)c1ccc(SCc2nc(N)nc(N(C)C)n2)cc1 [Compound Z290622280]
1 | – | CC1=C(C(=O)N(C)C)C(c2ccc(-c3c(F)cccc3F)o2)NC(=S)N1 (centres unmarked) [Compound Z1211655765]
34 | 0 | Cc1nccn1-c1cncc(N2CCC3(CCCC3)CC2)n1 [Compound Z1578863056]
-21 | – | CC1CN(C(=O)Nc2ccccn2)CCN1C(=O)Nc1ccccn1 (centres unmarked) [Compound Z827524892]

First screening IR (inhibition rate) [%] | Second screening IR (inhibition rate) (second screening, dissolved from fresh powder, n = 4) [%] | Compound
8 | – | O=C(Nc1cccc(OCCn2cccn2)c1)NC1CCSCC1 [Compound Z987964770]
-5 | – | CN(C)C(=O)Cn1cc(NC(=O)c2ccc3cc[nH]c3c2)cn1 [Compound Z1067269008]
-12 | – | O=C(CCN1CCCC1=O)Nc1ccc(Oc2ccc(F)cc2)cn1 [Compound Z1129155203]
60 | – | Nc1nc(N2CC=C(c3ccccc3F)CC2)c2[nH]cnc2n1 [Compound Z1699229618]
-2 | – | CC1OC(C)(C)N(C(=O)OC(C)(C)C)C1CNC(=O)c1c(F)cccc1Cl (centres unmarked) [Compound Z1229892973]
-2 | – | Cc1cc(C(NCC(=O)Nc2cccc(C(=O)N(C)C)c2)C(C)C)c(C)s1 (centres unmarked) [Compound Z1592563027]
13 | – | CC(C)NC(=O)N1CCCCCC1C1CCN(c2ncc(C(N)=O)cc2Cl)CC1 (centres unmarked) [Compound Z1168219830]
-6 | – | CCc1nnc2n1CCN(CC(=O)NC1CCCc3ccccc31)C2 (centres unmarked) [Compound Z1139436344]
6 | – | O=S1(=O)CC=C(S(=O)(=O)N2CCCC2)C1 [Compound Z1342206502]
6 | – | O=C(Nc1cccc(Cn2ccnc2)c1)c1cc2c(s1)-c1ccccc1OC2 [Compound Z362662212]
0 | – | O=C(O)c1cnc(/C=C/c2cccnc2)s1 [Compound Z1021595256]
-14 | – | O=C(CCc1cnn(-c2ccccc2)c1)Nc1n[nH]c(-c2ccccn2)n1 [Compound Z653343234]
3 | – | CC(C)Oc1cc(CN(c2ncnc3c2cnn3C)C2CC2)ccn1 [Compound Z1739489055]
7 | – | CC(C)NC(=O)Nc1ccc(C(=O)N(CCC#N)Cc2ccco2)cc1 [Compound Z979061162]
-1 | – | Cn1c(=O)[nH]c(=O)c2cc(C(=O)OCCNc3ncccc3C#N)cnc21 [Compound Z1633934253]
6 | – | Cc1cc(F)cc2[nH]c(C(=O)NC3CN(C(=O)OC(C)(C)C)CC3C#N)cc12 (centres unmarked) [Compound Z1671371372]
